Test results published in PubChem BioAssay (NCI).
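Cultured in 96-well plates, cells were exposed to test compound for 48 hours across five concentrations. TGI is the concentration that stops growth completely.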

Experiments:
Assay in all cases: NCI tumour cell line growth inhibition, 48 h
[1] = test system: NCI/ADR-RES ovarian
[2] = test system: SR leukemia
[3] = test system: COLO 205 colon
[4] = test system: SF-539 CNS
[5] = test system: OVCAR-8 ovarian
[6] = test system: T-47D breast
[7] = test system: ACHN renal
[8] = test system: EKVX NSCLC
[9] = test system: IGROV1 ovarian
[10] = test system: OVCAR-5 ovarian
[11] = test system: HOP-62 NSCLC
[12] = test system: MDA-N
[13] = test system: 786-0 renal
[14] = test system: MOLT-4 leukemia
[15] = test system: SK-MEL-28 melanoma
[16] = test system: OVCAR-3 ovarian
[17] = test system: NCI-H522 lung
[18] = test system: SF-268 CNS
[19] = test system: KM12 colon
[20] = test system: SK-MEL-5 melanoma
[21] = test system: HT29 colon
[22] = test system: HCC-2998 colon
[23] = test system: HL-60(TB) leukemia
[24] = test system: U251 CNS
[25] = test system: K-562 leukemia
[26] = test system: NCI-H460 lung
[27] = test system: TK-10 renal
[28] = test system: OVCAR-4 ovarian
[29] = test system: A549 NSCLC
[30] = test system: SK-OV-3 ovarian
[31] = test system: MDA-MB-435
[32] = test system: HS 578T breast
[33] = test system: NCI-H23 lung
[34] = test system: SN12C renal
[35] = test system: UO-31 renal
[36] = test system: SK-MEL-2 melanoma
[37] = test system: M14 melanoma
[38] = test system: MALME-3M melanoma
[39] = test system: SNB-19 CNS
[40] = test system: BT-549 breast
[41] = test system: MCF7 breast
[42] = test system: SNB-75 CNS
[43] = test system: RPMI-8226 leukemia
[44] = test system: MDA-MB-231 breast
[45] = test system: HOP-92 NSCLC
[46] = test system: UACC-62 melanoma
[47] = test system: CAKI-1 renal
[48] = test system: HCT-116 colon
[49] = test system: DU-145 prostate
[50] = test system: HCT-15 colon
[51] = test system: UACC-257 melanoma
[52] = test system: PC-3 prostate
[53] = test system: SF-295 CNS
[54] = test system: LOX IMVI melanoma
[55] = test system: CCRF-CEM leukemia
[56] = test system: NCI-H226 lung
[57] = test system: RXF 393 renal

SMILES: CCOC(=O)c1nc2ccccc2nc1Nc1ccc(Cl)c(Cl)c1
- TGI [1]: > 100 µM
- TGI [2]: > 100 µM
- TGI [3]: > 100 µM
- TGI [4]: > 100 µM
- TGI [5]: > 100 µM
- TGI [6]: > 100 µM
- TGI [7]: > 100 µM
- TGI [8]: > 100 µM
- TGI [9]: > 100 µM
- TGI [10]: > 100 µM
- TGI [11]: 63 µM
- TGI [12]: > 100 µM
- TGI [13]: > 100 µM
- TGI [14]: > 100 µM
- TGI [15]: > 100 µM
- TGI [16]: > 100 µM
- TGI [17]: > 100 µM
- TGI [18]: > 100 µM
- TGI [19]: > 100 µM
- TGI [20]: 65.5 µM
- TGI [21]: > 100 µM
- TGI [22]: > 100 µM
- TGI [23]: > 100 µM
- TGI [24]: > 100 µM
- TGI [25]: > 100 µM
- TGI [26]: > 100 µM
- TGI [27]: > 100 µM
- TGI [28]: > 100 µM
- TGI [29]: > 100 µM
- TGI [30]: 47.1 µM
- TGI [31]: > 100 µM
- TGI [32]: > 100 µM
- TGI [33]: > 100 µM
- TGI [34]: > 100 µM
- TGI [35]: > 100 µM
- TGI [36]: > 100 µM
- TGI [37]: > 100 µM
- TGI [38]: 93.9 µM
- TGI [39]: > 100 µM
- TGI [40]: 49.5 µM
- TGI [41]: > 100 µM
- TGI [42]: 68.4 µM
- TGI [43]: > 100 µM
- TGI [44]: > 100 µM
- TGI [45]: 44.5 µM
- TGI [46]: 83.2 µM
- TGI [47]: 70.9 µM
- TGI [48]: > 100 µM
- TGI [49]: > 100 µM
- TGI [50]: > 100 µM

SMILES: CC1=CC(=O)C(=C(C)C)CC1
- TGI [51]: > 100 µM
- TGI [1]: > 100 µM
- TGI [2]: > 100 µM
- TGI [5]: > 100 µM
- TGI [6]: > 100 µM
- TGI [7]: > 100 µM
- TGI [8]: > 100 µM
- TGI [9]: > 100 µM
- TGI [10]: > 100 µM
- TGI [11]: > 100 µM
- TGI [12]: > 100 µM
- TGI [13]: > 100 µM
- TGI [14]: > 100 µM
- TGI [15]: > 100 µM
- TGI [16]: > 100 µM
- TGI [17]: > 100 µM
- TGI [18]: > 100 µM
- TGI [19]: > 100 µM
- TGI [52]: > 100 µM
- TGI [20]: > 100 µM
- TGI [21]: > 100 µM
- TGI [23]: > 100 µM
- TGI [24]: > 100 µM
- TGI [25]: > 100 µM
- TGI [26]: > 100 µM
- TGI [53]: > 100 µM
- TGI [27]: > 100 µM
- TGI [28]: > 100 µM
- TGI [29]: > 100 µM
- TGI [54]: > 100 µM
- TGI [30]: > 100 µM
- TGI [55]: > 100 µM
- TGI [31]: > 100 µM
- TGI [32]: > 100 µM
- TGI [33]: > 100 µM
- TGI [56]: > 100 µM
- TGI [34]: > 100 µM
- TGI [35]: > 100 µM
- TGI [37]: > 100 µM
- TGI [38]: > 100 µM
- TGI [39]: > 100 µM
- TGI [40]: > 100 µM
- TGI [41]: > 100 µM
- TGI [42]: > 100 µM
- TGI [44]: > 100 µM
- TGI [46]: > 100 µM
- TGI [47]: > 100 µM
- TGI [48]: > 100 µM
- TGI [49]: > 100 µM
- TGI [57]: > 100 µM
- TGI [50]: > 100 µM
